In the NIST ThermoML archive (doi:10.1016/j.tca.2005.08.034):

How the values were obtained:
[1] = 298.15 K
[2] = refractive index (Na D-line) (dimensionless); conditions: 298.15 K; 101.33 kPa; Liquid; refractometer
[3] = xn = mol fraction of the nth substance listed; conditions: 298.15 K; for surface tension liquid-gas: Drop volume; for mass density / speed of sound: 101.3 kPa, Liquid; for mass density: Vibrating tube method
[4] = excess molar enthalpy (molar enthalpy of mixing); xn = mol fraction of the nth substance listed; conditions: 298.15 K, 101.3 kPa, Liquid, Flow calorimetry
[5] = refractive index (Na D-line) (dimensionless); φn = volume fraction of the nth substance listed; conditions: 298.15 K, 101.3 kPa, Liquid, refractometer

Clc1ccccc1 [chlorobenzene]
Conditions | surface tension liquid-gas [mN/m]
[1], Drop volume | 33

Conditions | speed of sound [m/s]
[1], 101.33 kPa, Liquid | 1267.9

Conditions | mass density [kg/m3]
[1], 101.33 kPa, Liquid, Vibrating tube method | 1100.94

Conditions | refractive index
[2] | 1.52176

CC1CCCO1 (centres undefined) [2-methyltetrahydrofuran] + Clc1ccccc1
Conditions | excess molar enthalpy [kcal/mol] | mass density [kg/m3] | refractive index | speed of sound [m/s] | surface tension liquid-gas [mN/m]
[3], x1 = 0.0378 | – | 1092.14 | – | 1266.6 | –
[3], x1 = 0.0483 | – | – | – | – | 32.6
[3], x1 = 0.0969 | – | – | – | – | 32.19
[3], x1 = 0.0995 | – | 1077.75 | – | 1264.3 | –
[3], x1 = 0.1875 | – | 1056.86 | – | 1261.1 | –
[3], x1 = 0.1993 | – | – | – | – | 31.31
[3], x1 = 0.2987 | – | 1030.2 | – | 1256.5 | –
[3], x1 = 0.2999 | – | – | – | – | 30.45
[3], x1 = 0.3922 | – | 1007.36 | – | 1251.9 | –
[3], x1 = 0.3988 | – | – | – | – | 29.61
[3], x1 = 0.4947 | – | 981.73 | – | 1246.3 | –
[3], x1 = 0.503 | – | – | – | – | 28.74
[3], x1 = 0.5973 | – | 955.71 | – | 1239.9 | –
[3], x1 = 0.6008 | – | – | – | – | 27.92
[3], x1 = 0.6435 | – | 943.88 | – | 1236.6 | –
[3], x1 = 0.7024 | – | – | – | – | 27.09
[3], x1 = 0.8003 | – | 902.98 | – | 1223.5 | –
[3], x1 = 0.8028 | – | – | – | – | 26.27
[3], x1 = 0.9051 | – | – | – | – | 25.44
[3], x1 = 0.9074 | – | 874.39 | – | 1212.9 | –
[3], x1 = 0.9393 | – | 865.76 | – | 1209.6 | –
[3], x1 = 0.9496 | – | – | – | – | 25.08
[4], x1 = 0.058 | -0.0203 | – | – | – | –
[4], x1 = 0.105 | -0.0402 | – | – | – | –
[4], x1 = 0.198 | -0.0793 | – | – | – | –
[4], x1 = 0.294 | -0.114 | – | – | – | –
[4], x1 = 0.391 | -0.137 | – | – | – | –
[4], x1 = 0.488 | -0.15 | – | – | – | –
[4], x1 = 0.585 | -0.149 | – | – | – | –
[4], x1 = 0.683 | -0.137 | – | – | – | –
[4], x1 = 0.784 | -0.107 | – | – | – | –
[4], x1 = 0.883 | -0.0626 | – | – | – | –
[4], x1 = 0.932 | -0.0394 | – | – | – | –
[5], φ1 = 0.0479 | – | – | 1.5165 | – | –
[5], φ1 = 0.0961 | – | – | 1.5112 | – | –
[5], φ1 = 0.1979 | – | – | 1.49985 | – | –
[5], φ1 = 0.2981 | – | – | 1.48853 | – | –
[5], φ1 = 0.3966 | – | – | 1.47724 | – | –
[5], φ1 = 0.5008 | – | – | 1.46501 | – | –
[5], φ1 = 0.5987 | – | – | 1.45323 | – | –
[5], φ1 = 0.7006 | – | – | 1.44079 | – | –
[5], φ1 = 0.8014 | – | – | 1.4283 | – | –
[5], φ1 = 0.9043 | – | – | 1.41518 | – | –
[5], φ1 = 0.9492 | – | – | 1.40941 | – | –

Fc1ccccc1 [fluorobenzene] + CC1CCCO1
Conditions | excess molar enthalpy [kcal/mol] | mass density [kg/m3] | refractive index | speed of sound [m/s] | surface tension liquid-gas [mN/m]
[3], x2 = 0.0364 | – | – | – | – | 27.39
[3], x2 = 0.0456 | – | 1011.05 | – | 1168.5 | –
[3], x2 = 0.099 | – | 1001.97 | – | 1171.6 | –
[3], x2 = 0.108 | – | – | – | – | 27.27
[3], x2 = 0.1923 | – | 986.13 | – | 1176.9 | –
[3], x2 = 0.1998 | – | – | – | – | 27.07
[3], x2 = 0.2882 | – | 969.82 | – | 1182.1 | –
[3], x2 = 0.2952 | – | – | – | – | 26.83
[3], x2 = 0.3925 | – | 952.32 | – | 1187.1 | –
[3], x2 = 0.3998 | – | – | – | – | 26.52
[3], x2 = 0.4884 | – | 936.02 | – | 1191.1 | –
[3], x2 = 0.4958 | – | – | – | – | 26.21
[3], x2 = 0.5925 | – | 918.32 | – | 1194.8 | –
[3], x2 = 0.6048 | – | – | – | – | 25.86
[3], x2 = 0.6784 | – | – | – | – | 25.62
[3], x2 = 0.6907 | – | 901.51 | – | 1197.6 | –
[3], x2 = 0.7796 | – | – | – | – | 25.3
[3], x2 = 0.7942 | – | 883.72 | – | 1199.4 | –
[3], x2 = 0.8938 | – | 866.65 | – | 1201 | –
[3], x2 = 0.9097 | – | – | – | – | 24.92
[3], x2 = 0.9481 | – | 857.59 | – | 1201.9 | –
[3], x2 = 0.9707 | – | – | – | – | 24.76
[4], x2 = 0.056 | -0.0191 | – | – | – | –
[4], x2 = 0.101 | -0.0373 | – | – | – | –
[4], x2 = 0.195 | -0.0746 | – | – | – | –
[4], x2 = 0.288 | -0.103 | – | – | – | –
[4], x2 = 0.388 | -0.125 | – | – | – | –
[4], x2 = 0.474 | -0.138 | – | – | – | –
[4], x2 = 0.583 | -0.136 | – | – | – | –
[4], x2 = 0.685 | -0.124 | – | – | – | –
[4], x2 = 0.786 | -0.0966 | – | – | – | –
[4], x2 = 0.889 | -0.0574 | – | – | – | –
[4], x2 = 0.94 | -0.0323 | – | – | – | –
[5], φ2 = 0.039 | – | – | 1.4608 | – | –
[5], φ2 = 0.1151 | – | – | 1.45666 | – | –
[5], φ2 = 0.2069 | – | – | 1.4516 | – | –
[5], φ2 = 0.3103 | – | – | 1.44577 | – | –
[5], φ2 = 0.4171 | – | – | 1.4396 | – | –
[5], φ2 = 0.5137 | – | – | 1.43392 | – | –
[5], φ2 = 0.6218 | – | – | 1.42736 | – | –
[5], φ2 = 0.6938 | – | – | 1.42282 | – | –
[5], φ2 = 0.7916 | – | – | 1.41661 | – | –
[5], φ2 = 0.9154 | – | – | 1.40849 | – | –
[5], φ2 = 0.9727 | – | – | 1.40473 | – | –
